The NIST ThermoML archive (doi:10.1007/s10765-012-1383-x)

Conditions: Fluid (supercritical or subcritical phases), Bellows volumetry

CC(C)C [2-methylpropane]
mass density [kg/m3]
Conditions	360 K	400 K	440 K	500 K	550 K	600 K
50000 kPa	568.86	539.91	512.43	472.16	440.41	410.52
60000 kPa	579.25	552.31	526.93	489.95	460.74	433.26
70000 kPa	588.53	563.06	539.33	504.87	477.5	451.97
80000 kPa	597.04	572.73	550.28	517.77	492.04	467.84
90000 kPa	604.5	581.56	559.97	529.04	504.6	481.73
100000 kPa	611.74	589.43	568.96	539.24	515.83	494.03
120000 kPa	624.36	603.57	584.57	557	535.44	515.09
140000 kPa	635.51	615.95	598.12	572.25	551.94	532.7
160000 kPa	645.68	627.09	610.19	585.63	566.41	548.14
180000 kPa	655.03	637.21	621.17	597.32	579.21	561.73
200000 kPa	663.47	646.22	631.03	607.94	590.74	573.91

CCCC [butane]
mass density [kg/m3]
Conditions	360 K	400 K	440 K	500 K	550 K	600 K
50000 kPa	585.47	556.11	527.49	485.76	452.74	421.67
60000 kPa	595.41	567.8	541.19	502.86	472.65	444.04
70000 kPa	604.19	578.11	552.99	517.01	489.04	462.25
80000 kPa	612.02	587.28	563.51	529.24	503.05	477.92
90000 kPa	619.58	595.58	572.93	540.26	515.43	491.53
100000 kPa	626.29	603.28	581.43	550.18	526.47	503.41
120000 kPa	638.57	617	596.67	567.64	545.49	524.18
140000 kPa	649.66	629.05	609.84	582.51	561.8	541.56
160000 kPa	659.24	639.75	621.49	595.57	575.61	556.81
180000 kPa	668.57	649.69	632.12	607.21	588.11	570.23
200000 kPa	676.57	658.6	641.85	617.68	599.35	582.23

CCC [propane]
mass density [kg/m3]
Conditions	360 K	400 K	440 K	500 K	550 K	600 K
50000 kPa	520.66	488.73	457.63	413.41	380.04	349.68
60000 kPa	532.63	503.01	474.47	434.04	403.51	375.39
70000 kPa	543.15	515.19	488.72	450.94	422.59	396.1
80000 kPa	552.56	525.98	500.95	465.53	438.76	413.71
90000 kPa	560.92	535.66	511.84	477.92	452.84	428.88
100000 kPa	568.67	544.28	521.48	489.12	464.72	442.26
120000 kPa	582.46	559.78	538.35	508.54	485.88	465.07
140000 kPa	594.1	573.12	552.91	524.91	503.64	484.26
160000 kPa	605.2	584.9	565.72	539.2	518.92	500.33
180000 kPa	614.83	595.54	577.17	551.84	532.53	514.78
200000 kPa	624.04	605.48	587.69	563.13	544.69	527.68
